In ChEMBL document CHEMBL1130567, “A simplified template approach towards the synthesis of a potent beta-3 adrenoceptor agonist at the human receptor” (Bioorg Med Chem Lett, 1997) one finds EC50 data, which are given here for 21 compounds.

Structures are written as SMILES.

The target in one test is T1, Beta-3 adrenergic receptor (Homo sapiens, UniProt P13945). Description: Beta-3 agonist efficacy in an adenylate cyclase assay performed on chinese hamster ovary cells transfected with human Beta-3 adrenergic receptor; inactive. In kind it is functional, cell-based.
T1 sequence (P13945 whole entry): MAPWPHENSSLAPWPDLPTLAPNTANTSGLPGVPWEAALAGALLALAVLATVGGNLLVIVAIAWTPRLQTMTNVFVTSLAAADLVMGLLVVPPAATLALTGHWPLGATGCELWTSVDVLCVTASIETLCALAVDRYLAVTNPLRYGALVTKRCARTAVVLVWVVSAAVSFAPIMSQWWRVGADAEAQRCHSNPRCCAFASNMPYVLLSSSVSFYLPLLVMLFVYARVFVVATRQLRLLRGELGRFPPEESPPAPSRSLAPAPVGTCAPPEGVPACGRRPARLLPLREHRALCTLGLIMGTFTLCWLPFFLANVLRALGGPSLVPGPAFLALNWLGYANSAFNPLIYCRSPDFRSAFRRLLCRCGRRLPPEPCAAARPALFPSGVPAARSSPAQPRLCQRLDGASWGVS
With `COc1ccc(CCNC[C@@H](O)COc2cccc3c2CCC(=O)N3)cc1`, the EC50 result was “Not Active”.
As for `COc1ccc(CCNC[C@@H](O)COc2cc(O)cc(CO)c2)cc1`, the EC50 entry is “Not Active”.
For `COc1ccc(CCNC[C@@H](O)COc2cccc3nc(O)ccc23)cc1`, the EC50 entry is “Not Active”.
For `COc1ccc(CCNC[C@@H](O)COc2ccc3c(c2)NC(=O)CO3)cc1`, the EC50 entry is “Not Active”.
In the case of `COc1ccc(CCNC[C@@H](O)COc2ccc(O)cc2CO)cc1`, the EC50 result was “Not Active”.
Same read-out and setting: the same measure for `COc1ccc(CCNC[C@@H](O)COc2ccc(F)c(CO)c2)cc1`: “Not Active”; for `COc1ccc(CCNC[C@@H](O)COc2cccc3[nH]c(C(F)(F)F)nc23)cc1`: “Not Active”; for `COc1ccc(CCNC[C@@H](O)COc2ccccc2O)cc1`: “Not Active”.

The next test has as its target T1, Beta-3 adrenergic receptor. The experiment in a line: Agonist efficacy for human Beta-3 adrenergic receptor expressed in chinese hamster ovary cells. The format is functional, cell-based.
Regarding `COc1ccc(CCNC[C@@H](O)COc2ccc(O)c(O)c2)cc1`, the EC50 was found to be 820 nM.
In turn, `COc1ccc(CCNC[C@@H](O)COc2ccc(O)c(NS(C)(=O)=O)c2)cc1` yielded an EC50 of 400 nM.
For `COc1ccc(CCNC[C@@H](O)COc2ccc(O)c(F)c2)cc1`, the EC50 was 7900 nM.
The same measure, in the same setting: the same measure for `COc1ccc(CCNC[C@@H](O)COc2cccc3[nH]c(=O)[nH]c23)cc1`: 2200 nM; for `C[C@H](Cc1ccc(OCP(=O)(O)c2ccccc2)cc1)NC[C@H](O)COc1ccc(O)c(NS(C)(=O)=O)c1`: 120 nM; for `COc1ccc(CCNC[C@@H](O)COc2ccc(O)c3c2CCC(=O)N3)cc1`: 560 nM.
On to `COc1ccc(CCNC[C@@H](O)COc2cccc(O)c2)cc1`, for which the EC50 was determined as 2000 nM.
The compound `COc1ccc(CCNC[C@@H](O)COc2ccc(O)cc2)cc1` showed an EC50 of 1000 nM.
Same read-out and setting: the same measure for `CCCCCCP(=O)(O)COc1ccc(CCNC[C@H](O)COc2ccc(O)c3c2CCC(=O)N3)cc1`: 290 nM; for `COc1ccc(CCNC[C@@H](O)COc2ccc(O)c(CO)c2)cc1`: 4700 nM; for `COc1ccc(CCNC[C@@H](O)COc2ccc(F)c(O)c2)cc1`: 1100 nM.
Compound `CC(C)(C)NCC(O)COc1cccc2[nH]c(=O)[nH]c12` (stereo unspecified) [CGP-12177] yielded an EC50 of 2000 nM.

Another test deals with T1, Beta-3 adrenergic receptor. Description: Beta-3 agonist efficacy in an adenylate cyclase assay performed on chinese hamster ovary cells transfected with human Beta-3 adrenergic receptor; Inactive. The format is functional, cell-based.
Turning to `COc1ccc(CCNC[C@H](O)COc2cccc(O)c2O)cc1`, the EC50 entry is on record as “Not Active”.
